Our source for the remaining activity values is patent publication US9738660B2, “Selective inhibitors for protein kinases and pharmaceutical composition and use thereof” (National Chiao Tung University, priority 2014, dated 2017).

Like-named read-outs stand apart in the source and are kept apart here.

Assay in all cases: Kinase Profiler, residual kinase activity
Common to all, as to type: biochemical
Holding throughout (conditions): read-out: percentage of the remaining kinase activity

One experiment has as its target T1, AURKA (Homo sapiens, UniProt O14965).
T1 sequence (O14965 1-403): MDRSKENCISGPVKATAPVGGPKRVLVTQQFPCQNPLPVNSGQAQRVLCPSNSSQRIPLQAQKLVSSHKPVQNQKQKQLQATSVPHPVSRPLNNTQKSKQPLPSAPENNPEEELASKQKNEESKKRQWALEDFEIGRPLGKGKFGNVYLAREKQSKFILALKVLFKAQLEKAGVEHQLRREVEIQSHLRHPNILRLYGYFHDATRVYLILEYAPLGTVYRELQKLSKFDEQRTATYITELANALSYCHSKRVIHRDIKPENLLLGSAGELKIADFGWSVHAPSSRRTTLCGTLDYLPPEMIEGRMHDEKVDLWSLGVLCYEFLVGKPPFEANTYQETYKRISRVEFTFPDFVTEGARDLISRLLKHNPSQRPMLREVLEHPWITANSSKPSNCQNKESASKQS
Put shortly: (§1)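 Residual kinase activity came from a commercial kinase profiling service, testing inhibitors across a panel of 40 protein kinases.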

For the next experiment, the target named is T2, AXL (Homo sapiens, UniProt P30530).
T2 construct: purchased Research Biology Corp. (http://www.reactionbiology.com)
T2 sequence (P30530 26-894): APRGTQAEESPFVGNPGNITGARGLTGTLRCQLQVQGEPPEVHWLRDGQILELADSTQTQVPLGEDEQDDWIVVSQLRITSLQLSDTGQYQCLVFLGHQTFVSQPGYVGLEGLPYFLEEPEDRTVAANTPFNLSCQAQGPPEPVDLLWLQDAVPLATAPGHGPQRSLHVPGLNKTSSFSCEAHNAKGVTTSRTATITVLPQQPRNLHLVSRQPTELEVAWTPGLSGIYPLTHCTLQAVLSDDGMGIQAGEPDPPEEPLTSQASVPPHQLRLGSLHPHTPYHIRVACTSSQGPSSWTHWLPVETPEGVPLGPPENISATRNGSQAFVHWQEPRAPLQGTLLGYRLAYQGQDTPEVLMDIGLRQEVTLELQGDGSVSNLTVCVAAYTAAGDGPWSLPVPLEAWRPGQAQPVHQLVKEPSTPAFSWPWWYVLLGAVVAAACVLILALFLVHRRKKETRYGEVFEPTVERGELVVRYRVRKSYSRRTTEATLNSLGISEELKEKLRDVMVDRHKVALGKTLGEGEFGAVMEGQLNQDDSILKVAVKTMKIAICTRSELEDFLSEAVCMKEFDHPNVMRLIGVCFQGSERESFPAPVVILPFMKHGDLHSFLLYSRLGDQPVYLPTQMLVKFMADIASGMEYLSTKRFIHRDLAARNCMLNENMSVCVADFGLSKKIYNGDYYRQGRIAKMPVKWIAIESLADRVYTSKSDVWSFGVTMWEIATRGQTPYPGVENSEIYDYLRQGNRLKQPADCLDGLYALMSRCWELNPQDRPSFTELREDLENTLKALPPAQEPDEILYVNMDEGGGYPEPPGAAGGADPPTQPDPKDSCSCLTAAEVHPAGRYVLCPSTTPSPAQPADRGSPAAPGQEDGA
Summed up:
as §1

A further experiment concerns the target CLK1 (Homo sapiens, UniProt P49759). Put shortly:
as §1

A further experiment deals with GSK3B (Homo sapiens, UniProt P49841). Summed up:
as §1

The target in the next experiment is LIMK1 (Homo sapiens, UniProt P53667). Put shortly:
as §1

The target of another experiment is T3, MAP3K7 (Homo sapiens, UniProt O43318).
T3 construct: purchased Research Biology Corp. (http://www.reactionbiology.com)
T3 sequence (O43318 1-303 limits assumed): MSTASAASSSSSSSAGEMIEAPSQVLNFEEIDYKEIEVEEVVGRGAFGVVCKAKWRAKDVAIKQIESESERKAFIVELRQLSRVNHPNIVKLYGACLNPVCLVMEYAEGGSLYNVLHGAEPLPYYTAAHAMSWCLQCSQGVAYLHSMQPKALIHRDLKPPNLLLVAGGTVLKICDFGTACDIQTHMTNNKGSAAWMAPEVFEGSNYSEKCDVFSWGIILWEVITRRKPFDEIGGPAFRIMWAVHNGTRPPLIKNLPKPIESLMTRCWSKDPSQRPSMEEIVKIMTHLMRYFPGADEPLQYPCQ
Summed up:
as §1

Another experiment deals with T4, PDPK1 (Homo sapiens, UniProt O15530).
T4 sequence (O15530 1-556): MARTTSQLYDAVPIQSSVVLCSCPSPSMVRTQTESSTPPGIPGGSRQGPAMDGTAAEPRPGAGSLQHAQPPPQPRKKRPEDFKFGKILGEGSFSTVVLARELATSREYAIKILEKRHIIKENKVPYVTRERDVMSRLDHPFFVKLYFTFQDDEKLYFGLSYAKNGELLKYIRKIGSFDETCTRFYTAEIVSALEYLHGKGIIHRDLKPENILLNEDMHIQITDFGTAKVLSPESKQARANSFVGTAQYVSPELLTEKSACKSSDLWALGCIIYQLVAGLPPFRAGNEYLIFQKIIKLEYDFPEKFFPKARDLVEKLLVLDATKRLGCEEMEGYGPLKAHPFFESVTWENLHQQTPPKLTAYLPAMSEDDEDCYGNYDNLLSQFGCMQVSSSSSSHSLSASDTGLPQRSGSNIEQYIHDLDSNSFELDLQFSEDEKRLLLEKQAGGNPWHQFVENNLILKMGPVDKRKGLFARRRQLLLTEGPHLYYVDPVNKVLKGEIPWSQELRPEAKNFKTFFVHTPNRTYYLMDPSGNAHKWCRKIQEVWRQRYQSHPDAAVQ
Put shortly:
as §1

A further experiment has as its target T5, STK16 (Homo sapiens, UniProt O75716).
T5 construct: purchased Research Biology Corp. (http://www.reactionbiology.com)
Put shortly:
as §1

Broadly, the remaining activity is the signal under treatment as a percentage of the control signal.

T5 sequence (O75716 whole entry): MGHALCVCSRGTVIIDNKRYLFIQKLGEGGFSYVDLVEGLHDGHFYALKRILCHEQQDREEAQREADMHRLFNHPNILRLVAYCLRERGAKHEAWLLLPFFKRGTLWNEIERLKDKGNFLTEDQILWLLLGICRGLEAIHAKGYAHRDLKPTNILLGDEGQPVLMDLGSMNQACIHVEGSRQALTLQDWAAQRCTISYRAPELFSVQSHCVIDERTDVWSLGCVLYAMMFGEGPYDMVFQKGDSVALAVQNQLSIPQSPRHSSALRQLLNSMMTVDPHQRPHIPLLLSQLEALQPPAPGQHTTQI
CLK1, sequence (P49759 whole entry): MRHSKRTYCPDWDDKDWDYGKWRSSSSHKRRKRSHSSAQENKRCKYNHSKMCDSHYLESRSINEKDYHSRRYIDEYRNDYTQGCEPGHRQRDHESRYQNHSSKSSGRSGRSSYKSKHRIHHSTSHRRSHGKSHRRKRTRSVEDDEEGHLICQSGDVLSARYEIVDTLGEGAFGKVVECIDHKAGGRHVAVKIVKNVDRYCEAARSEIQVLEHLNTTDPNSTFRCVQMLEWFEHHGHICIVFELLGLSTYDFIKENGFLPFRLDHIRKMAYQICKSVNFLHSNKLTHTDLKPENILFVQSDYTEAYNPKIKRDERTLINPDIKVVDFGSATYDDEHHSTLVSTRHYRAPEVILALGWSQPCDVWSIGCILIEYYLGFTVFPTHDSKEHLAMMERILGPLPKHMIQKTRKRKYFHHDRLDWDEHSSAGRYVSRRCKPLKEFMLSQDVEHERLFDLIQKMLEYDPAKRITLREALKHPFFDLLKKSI
LIMK1, sequence (P53667 whole entry): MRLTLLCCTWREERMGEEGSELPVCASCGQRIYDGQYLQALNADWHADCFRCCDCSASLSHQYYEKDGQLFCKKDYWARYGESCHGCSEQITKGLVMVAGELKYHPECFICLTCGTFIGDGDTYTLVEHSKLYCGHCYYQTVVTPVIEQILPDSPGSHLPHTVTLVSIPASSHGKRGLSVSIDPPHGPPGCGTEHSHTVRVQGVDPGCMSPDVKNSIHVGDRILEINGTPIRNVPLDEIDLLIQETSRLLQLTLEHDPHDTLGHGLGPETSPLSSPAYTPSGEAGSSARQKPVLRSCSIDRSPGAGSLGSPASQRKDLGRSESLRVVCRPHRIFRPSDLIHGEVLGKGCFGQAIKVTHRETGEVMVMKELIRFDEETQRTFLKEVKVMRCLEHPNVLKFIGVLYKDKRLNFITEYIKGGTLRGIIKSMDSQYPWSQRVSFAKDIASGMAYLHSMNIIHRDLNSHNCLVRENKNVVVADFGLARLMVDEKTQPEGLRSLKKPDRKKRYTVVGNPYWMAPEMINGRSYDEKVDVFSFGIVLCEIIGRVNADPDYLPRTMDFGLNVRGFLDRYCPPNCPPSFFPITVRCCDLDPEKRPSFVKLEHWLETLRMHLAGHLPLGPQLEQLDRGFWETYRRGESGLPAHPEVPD
GSK3B, sequence (P49841 whole entry): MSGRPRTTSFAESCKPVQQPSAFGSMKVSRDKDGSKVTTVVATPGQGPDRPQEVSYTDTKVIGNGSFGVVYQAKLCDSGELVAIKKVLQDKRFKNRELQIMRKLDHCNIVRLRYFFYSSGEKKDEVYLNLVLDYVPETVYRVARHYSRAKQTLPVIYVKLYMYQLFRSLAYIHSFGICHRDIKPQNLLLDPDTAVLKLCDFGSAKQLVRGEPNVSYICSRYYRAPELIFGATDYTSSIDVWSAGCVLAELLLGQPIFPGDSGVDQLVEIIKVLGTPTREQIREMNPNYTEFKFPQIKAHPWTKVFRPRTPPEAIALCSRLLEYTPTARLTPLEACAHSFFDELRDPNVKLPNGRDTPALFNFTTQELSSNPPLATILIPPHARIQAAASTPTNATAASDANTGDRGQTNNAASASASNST

With `COC1C(N(C)C(=O)C(N)Cc2c[nH]cn2)CC2OC1(C)n1c3ccccc3c3c4c(c5c6ccccc6n2c5c31)C(=O)NC4` (stereo not drawn) [Compound 1], the remaining activity at 0.5 µM at AURKA (AURKA, inhibitor at 500 nM) turned out to be 2.1%; on AXL (AXL, inhibitor at 500 nM), 35.4%; on CLK1 (CLK1, inhibitor at 500 nM), 15.9%; at GSK3B (GSK3B, inhibitor at 500 nM) it was 17.9%; on LIMK1 (LIMK1, inhibitor at 500 nM), 18.8%; at MAP3K7 (MAP3K7, inhibitor at 500 nM), 37.5%. The remaining activity at 0.5 µM on PDPK1 (PDPK1, inhibitor at 500 nM) worked out at 0.5%; at STK16 (STK16, inhibitor at 500 nM) it was 59%.
As for `COC1C(N(C)C(=O)C(N)Cc2cn(C(=O)OC(C)(C)C)c3ccccc23)CC2OC1(C)n1c3ccccc3c3c4c(c5c6ccccc6n2c5c31)C(=O)NC4` (stereo not drawn) [Compound 2], the remaining activity at 0.5 µM on AURKA (AURKA, inhibitor at 500 nM) amounted to 86.2%; on AXL (AXL, inhibitor at 500 nM), 100%; on CLK1 (CLK1, inhibitor at 500 nM) it was 107%; on GSK3B (GSK3B, inhibitor at 500 nM), 94.2%; at LIMK1 (LIMK1, inhibitor at 500 nM) it was 103%; on MAP3K7 (MAP3K7, inhibitor at 500 nM), 103%. Also, the remaining activity at 0.5 µM on PDPK1 (PDPK1, inhibitor at 500 nM) stood at 81%; at STK16 (STK16, inhibitor at 500 nM), 105%.
Consider `COC1C(N(C)C(=O)C(N)Cc2ccc(OC(C)(C)C)cc2)CC2OC1(C)n1c3ccccc3c3c4c(c5c6ccccc6n2c5c31)C(=O)NC4` (stereo not drawn) [Compound 4], for which the remaining activity at 0.5 µM on AURKA (AURKA, inhibitor at 500 nM) is 19.7%; at AXL (AXL, inhibitor at 500 nM), 77.2%; on CLK1 (CLK1, inhibitor at 500 nM) it was 98.6%; at GSK3B (GSK3B, inhibitor at 500 nM), 86.6%; at LIMK1 (LIMK1, inhibitor at 500 nM), 66.9%; on MAP3K7 (MAP3K7, inhibitor at 500 nM), 98.6%. Moreover, the remaining activity at 0.5 µM is 13.3% at PDPK1 (PDPK1, inhibitor at 500 nM) and 99.8% at STK16 (STK16, inhibitor at 500 nM).
Consider `COC1C(N(C)C(=O)C(N)Cc2ccc(O)cc2)CC2OC1(C)n1c3ccccc3c3c4c(c5c6ccccc6n2c5c31)C(=O)NC4` (stereo not drawn) [Compound 5], for which the remaining activity at 0.5 µM on AURKA (AURKA, inhibitor at 500 nM) was found to be 4.9%; at AXL (AXL, inhibitor at 500 nM) it was 60.3%; at CLK1 (CLK1, inhibitor at 500 nM) it was 29.6%; on GSK3B (GSK3B, inhibitor at 500 nM), 29.4%; at LIMK1 (LIMK1, inhibitor at 500 nM), 46.9%; at MAP3K7 (MAP3K7, inhibitor at 500 nM), 70.7%. The remaining activity at 0.5 µM on PDPK1 (PDPK1, inhibitor at 500 nM) turned out to be 2%; at STK16 (STK16, inhibitor at 500 nM), 86.7%.
For `COC1C(N(C)C(=O)C(N)CCC(=O)OC(C)(C)C)CC2OC1(C)n1c3ccccc3c3c4c(c5c6ccccc6n2c5c31)C(=O)NC4` (stereo not drawn) [Compound 6], the remaining activity at 0.5 µM came out at 5.3% at AURKA (AURKA, inhibitor at 500 nM); 60.9% at AXL (AXL, inhibitor at 500 nM); 86.6% on CLK1 (CLK1, inhibitor at 500 nM); 79.7% on GSK3B (GSK3B, inhibitor at 500 nM); 39.5% on LIMK1 (LIMK1, inhibitor at 500 nM); 84.2% at MAP3K7 (MAP3K7, inhibitor at 500 nM). The remaining activity at 0.5 µM was determined as 3.4% on PDPK1 (PDPK1, inhibitor at 500 nM) and 94% at STK16 (STK16, inhibitor at 500 nM).
Consider `COC1C(N(C)C(=O)C(N)CCC(=O)O)CC2OC1(C)n1c3ccccc3c3c4c(c5c6ccccc6n2c5c31)C(=O)NC4` (stereo not drawn) [Compound 7], for which the remaining activity at 0.5 µM on AURKA (AURKA, inhibitor at 500 nM) is 0.9%; on AXL (AXL, inhibitor at 500 nM), 26.8%; at CLK1 (CLK1, inhibitor at 500 nM), 32.3%; on GSK3B (GSK3B, inhibitor at 500 nM), 9.6%; on LIMK1 (LIMK1, inhibitor at 500 nM), 1.4%; at MAP3K7 (MAP3K7, inhibitor at 500 nM), 27.8%. In addition, the remaining activity at 0.5 µM was 0.5% on PDPK1 (PDPK1, inhibitor at 500 nM) and 51.6% at STK16 (STK16, inhibitor at 500 nM).
In the case of `COC1C(N(C)CCOc2cccc([N+](=O)[O-])c2)CC2OC1(C)n1c3ccccc3c3c4c(c5c6ccccc6n2c5c31)C(=O)NC4` (stereo not drawn) [Compound 8], the remaining activity at 0.5 µM on AURKA turned out to be 12.1%; on AXL, 46.3%; at CLK1, 74.8%; on GSK3B it was 51.8%; on LIMK1, 49.9%; on MAP3K7, 63.5%. For the same molecule, the remaining activity at 0.5 µM came to 4.7% on PDPK1 and 94% at STK16.
On to `COC1C(N(C)Cc2ccc(-c3ccccc3)cc2)CC2OC1(C)n1c3ccccc3c3c4c(c5c6ccccc6n2c5c31)C(=O)NC4` (stereo not drawn) [Compound 9], for which the remaining activity at 0.5 µM at AURKA (AURKA, inhibitor at 500 nM) turned out to be 11.2%; on AXL (AXL, inhibitor at 500 nM) it was 37.6%; on CLK1 (CLK1, inhibitor at 500 nM) it was 73.7%; on GSK3B (GSK3B, inhibitor at 500 nM), 46.6%; at LIMK1 (LIMK1, inhibitor at 500 nM) it was 56.5%; at MAP3K7 (MAP3K7, inhibitor at 500 nM) it was 69.4%. Further, the remaining activity at 0.5 µM came out at 2.7% at PDPK1 (PDPK1, inhibitor at 500 nM) and 103% at STK16 (STK16, inhibitor at 500 nM).
Take `CN[C@@H]1C[C@H]2O[C@@](C)([C@@H]1OC)n1c3ccccc3c3c4c(c5c6ccccc6n2c5c31)C(=O)NC4` [STU, staurosporine, reference compound]: the remaining activity at 0.5 µM on AURKA was 0.2%; at AXL it was 8.8%; at LIMK1, -0.6%; at PDPK1 (PDPK1, inhibitor at 500 nM) it was -1.8%; on STK16, 52.5%.
